Assay type in all cases: functional
Experiment [1] has as its system Pasteurella multocida. The experiment is described as follows: Tested in vitro for the minimum inhibitory concentration (MIC) against Pasteurella multocida.
For experiment [2], the system named is Salmonella enterica. The experiment is described as follows: Tested in vitro for the minimum inhibitory concentration (MIC) against Salmonella choleraesuis.
Experiment [3] concerns Salmonella enterica. The experiment is described as follows: Tested in vivo for the antibacterial activity against Salmonella choleraesuis after sc administration of 25 mg/kg in mice. As to conditions: route subcutaneous.
Experiment [4] relates to Escherichia coli. The experiment is described as follows: Tested in vitro for the minimum inhibitory concentration (MIC) against Escherichia coli.
For the next experiment, the system named is Streptococcus pyogenes. The experiment is described as follows: Tested in vitro for the minimum inhibitory concentration (MIC) against Strep. pyogenes.
The subject of experiment [5] is Salmonella enterica. The experiment is described as follows: Tested in vivo for the antibacterial activity against Salmonella choleraesuis after oral administration of 25 mg/kg in mice.
Experiment [6] concerns Pasteurella multocida. The experiment is described as follows: Tested in vivo for the antibacterial activity against Pasteurella multocida after sc administration in mice. The conditions noted are these: read-out: PD50.
Experiment [7] has as its system Salmonella enterica. The experiment is described as follows: Tested in vivo for the antibacterial activity against Salmonella choleraesuis after oral administration in mice. As to conditions: read-out: PD50.
The test system of experiment [8] is Pasteurella multocida. The experiment is described as follows: Tested in vivo for the antibacterial activity against Pasteurella multocida after oral administration in mice. As to conditions: read-out: PD50.
Experiment [9] relates to Escherichia coli. The experiment is described as follows: Tested in vivo for the antibacterial activity against Escherichia coli after sc administration in mice. The conditions noted are these: read-out: PD50.
Experiment [10] deals with Escherichia coli. The experiment is described as follows: Tested in vivo for the antibacterial activity against Escherichia coli after oral administration in mice. The conditions noted are these: read-out: PD50.
The subject of experiment [11] is Salmonella enterica. The experiment is described as follows: Tested in vivo for the antibacterial activity against Salmonella choleraesuis after sc administration in mice. The conditions noted are these: read-out: PD50.

In brackets after ≈: the same amount, converted by molar mass.

Regarding `COCCN1CCc2c([n+]([O-])c3ccccc3[n+]2[O-])C1=O`, the MIC in the experiment on Pasteurella multocida [1] is 3.12 µg/mL (≈ 10.8 µM); in the experiment with Salmonella enterica [2], 3.12 µg/mL (≈ 10.8 µM); against Escherichia coli [4] it was 1.56 µg/mL (≈ 5.39 µM); against Streptococcus pyogenes, 0.78 µg/mL (≈ 2.7 µM). Besides, the Protection turned out to be 90% with Salmonella enterica [3] and 60% in the experiment on Salmonella enterica [5].
For `C=CCN1CCc2c([n+]([O-])c3ccccc3[n+]2[O-])C1=O`, the minimum inhibitory concentration (MIC) is 6.25 µg/mL (≈ 23 µM) in the experiment with Pasteurella multocida [1], 1.56 µg/mL (≈ 5.75 µM) against Salmonella enterica [2], 3.12 µg/mL (≈ 11.5 µM) with Escherichia coli [4] and 0.78 µg/mL (≈ 2.88 µM) against Streptococcus pyogenes. Moreover, the Protection with Salmonella enterica [3] is 30%; in the experiment with Salmonella enterica [5], 0%.
Consider `CN1CCc2c([n+]([O-])c3ccccc3[n+]2[O-])C1=O`, for which the ED50 is 3.8 mg/kg in the experiment with Pasteurella multocida [6]; 5.1 mg/kg in the experiment on Salmonella enterica [7]; 4.7 mg/kg in the experiment with Pasteurella multocida [8]; 6.39 mg/kg in the experiment with Escherichia coli [9]; 8.53 mg/kg with Escherichia coli [10]; 2.96 mg/kg in the experiment with Salmonella enterica [11]. Besides, the MIC in the experiment with Pasteurella multocida [1] stood at 1.56 µg/mL (≈ 6.36 µM); in the experiment on Salmonella enterica [2], 1.56 µg/mL (≈ 6.36 µM); against Escherichia coli [4], 0.78 µg/mL (≈ 3.18 µM); in the experiment with Streptococcus pyogenes it was 1.56 µg/mL (≈ 6.36 µM). For the same compound, the Protection with Salmonella enterica [3] and with Salmonella enterica [5] was 100% each time.
As to `O=C1c2c([n+]([O-])c3ccccc3[n+]2[O-])CCN1C1CCCCC1`, the MIC in the experiment on Pasteurella multocida [1] stood at 25 µg/mL (≈ 79.8 µM); with Salmonella enterica [2], 50 µg/mL (≈ 160 µM); in the experiment on Escherichia coli [4], 50 µg/mL (≈ 160 µM); against Streptococcus pyogenes, 3.12 µg/mL (≈ 9.96 µM). The Protection in the experiment on Salmonella enterica [3] and with Salmonella enterica [5] was 0% in each case.
Take `O=C1c2c([n+]([O-])c3ccccc3[n+]2[O-])CCN1CCN1CCCCC1`: the minimum inhibitory concentration (MIC) with Pasteurella multocida [1] is 25 µg/mL (≈ 73 µM); against Salmonella enterica [2], 1.56 µg/mL (≈ 4.56 µM); in the experiment on Escherichia coli [4] it was 3.12 µg/mL (≈ 9.11 µM); in the experiment with Streptococcus pyogenes it was below 0.39 µg/mL. For the same compound, the Protection in the experiment on Salmonella enterica [3] was 30%; in the experiment on Salmonella enterica [5], 0%.
For the compound `O=C1NCCc2c1[n+]([O-])c1ccccc1[n+]2[O-]`, the MIC was below 0.39 µg/mL in the experiment with Pasteurella multocida [1], 1.56 µg/mL (≈ 6.75 µM) against Salmonella enterica [2], 1.56 µg/mL (≈ 6.75 µM) with Escherichia coli [4] and 1.56 µg/mL (≈ 6.75 µM) in the experiment with Streptococcus pyogenes. The Protection in the experiment on Salmonella enterica [3] worked out at 80%; with Salmonella enterica [5], 0%.
For the compound `CCN1CCc2c([n+]([O-])c3ccccc3[n+]2[O-])C1=O`, the MIC against Pasteurella multocida [1] was found to be 6.25 µg/mL (≈ 24.1 µM); against Salmonella enterica [2], 1.56 µg/mL (≈ 6.02 µM); against Escherichia coli [4] it was 3.12 µg/mL (≈ 12 µM); in the experiment on Streptococcus pyogenes it was 1.56 µg/mL (≈ 6.02 µM). Moreover, the Protection in the experiment with Salmonella enterica [3] worked out at 70%; with Salmonella enterica [5], 50%.
In the case of `O=C1c2c([n+]([O-])c3ccccc3[n+]2[O-])CCN1CCO`, the MIC was found to be 12.5 µg/mL (≈ 45.4 µM) with Pasteurella multocida [1], 12.5 µg/mL (≈ 45.4 µM) against Salmonella enterica [2], 12.5 µg/mL (≈ 45.4 µM) against Escherichia coli [4] and 6.25 µg/mL (≈ 22.7 µM) against Streptococcus pyogenes. Moreover, the Protection with Salmonella enterica [3] and in the experiment on Salmonella enterica [5] was 0% throughout.
Turning to `COC(=O)N/N=C/c1c[n+]([O-])c2ccccc2[n+]1[O-]` [CARBADOX], the ED50 in the experiment with Pasteurella multocida [6] amounted to 4.05 mg/kg; with Salmonella enterica [7], 4.47 mg/kg; with Pasteurella multocida [8] it was 6.14 mg/kg; in the experiment with Escherichia coli [9], 6.44 mg/kg; with Escherichia coli [10] it was 5.3 mg/kg; with Salmonella enterica [11], 5.44 mg/kg. Besides, the minimum inhibitory concentration (MIC) in the experiment with Pasteurella multocida [1] worked out at 0.78 µg/mL (≈ 2.97 µM); against Salmonella enterica [2], 0.19 µg/mL (≈ 0.725 µM); with Escherichia coli [4] it was 0.39 µg/mL (≈ 1.49 µM); with Streptococcus pyogenes, 0.19 µg/mL (≈ 0.725 µM). The Protection with Salmonella enterica [3] and in the experiment with Salmonella enterica [5] was 100% each time.

One may read the MIC as the smallest concentration in the dilution series that meets the test's criterion for growth inhibition. A higher MIC goes with a need for much substance.

Source of the values: ChEMBL document CHEMBL1122100, “Pyridoquinoxaline N-oxides. 2. Synthesis and antibacterial activity of tricyclic lactams” (1982).
